Among the data in US11117898B2, “Pyrazolo-heteroaryl derivative, preparation method and medical use thereof” (Jiangsu Hengrui Medicine Co., Ltd., priority 2016, dated 2021) are IC50, Emax and EC50 values, retold here.

For data set [1], the target named is CYP2D6 (Homo sapiens (Human), UniProt P10635). Description: Inhibition of the enzyme activity of CYP2D6 in human liver microsomes. Format: in vitro ADME. As to conditions: probe substrate dextromethorphan. On the procedure: The effect of the compounds of the present invention on the enzyme activity of CYP2D6 in human liver microsomes was determined by the following experimental method:
100 mM PBS buffer was formulated, which was then used to formulate 2.5 mg/ml microsome solution and 5 mM NADPH solution. The 5× concentration of the compound working solution was diluted with PBS gradient (150, 50, 15, 5, 1.5, 0.15, 0.015, 0 μM). The 5× concentration of quinidine working solution was diluted with PBS gradient (150, 50, 15, 5, 1.5, 0.15, 0.015, 0 μM). Dextromethorphan working solution was diluted with PBS to a concentration of 50 μM.
(§1) 20 μl of 2.5 mg/ml microsome solution, 20 μl of 50 μM testosterone working solution, 20 μl of MgCl2 solution and 20 μl of the compound working solution (150, 50, 15, 5, 1.5, 0.15, 0.015, 0 μM, different reaction systems for each concentration) were taken respectively and mixed well. For the positive control group, the compound was replaced with the same concentration of quinidine. The mixture together with 5 mM NADPH solution were pre-incubated at 37° C. for 5 minutes. After 5 minutes, 20 μl of NADPH were added to each well, the reaction was started and incubated for 30 minutes. All the incubated samples were present in duplicate. After 30 minutes, 250 μl of acetonitrile containing internal standard were added to all samples, mixed well, shaken at 800 rpm for 10 minutes, and then centrifuged at 3700 rpm for 10 minutes. 80 μl of the supernatant were taken and analyzed by LC-MS/MS.
The data were calculated by Graphpad Prism to obtain the IC50 values of the compounds on the metabolite site of CYP2D6.
A general note: Liver microsomes are vesicles of endoplasmic reticulum, rich in cytochrome P450 enzymes.

Data set [2] deals with CYP3A4 (Homo sapiens (Human), UniProt P08684). Description: Inhibition of the midazolam metabolite site of CYP3A4 in human liver microsomes. It is filed as in vitro ADME. As to conditions: probe substrate midazolam. The procedure: The effect of the compounds of the present invention on the enzyme activity of midazolam metabolite site of CYP3A4 in human liver microsomes was determined by the following experimental method:
100 mM PBS buffer was formulated, which was then used to formulate 2.5 mg/ml microsome solution and 5 mM NADPH solution. The 5× concentration of the compound working solution was diluted with PBS gradient (150, 50, 15, 5, 1.5, 0.15, 0.015, 0 μM). The 5× concentration of ketoconazole working solution was diluted with PBS gradient (150, 50, 15, 5, 1.5, 0.15, 0.015, 0 μM). Dextromethorphan working solution was diluted with PBS to a concentration of 50 μM.
as §1, with “ketoconazole.” for “quinidine.”
The data were calculated by Graphpad Prism to obtain the IC50 values of the compounds on the midazolam metabolite site of CYP3A4.

Data set [3] addresses human TLR7 (Homo sapiens (Human), UniProt Q9NYK1). The data set can be described thus: Agonistic activity on human TLR7 in HEK-Blue hTLR7 stably transfected cells. Format: cell-based. The following applies: for EC50: OD 620 nm. The procedure:
The activation effect of the compounds of the present invention on the hTLR7 protein expressed by the HEK-Blue™ hTLR7 stably transfected cells was determined by the following experimental method:
A bag of HEK-Blue detection dry powder was dissolved in 50 ml of water free of endotoxin, and the solution was then placed in an incubator at 37° C. for 10 minutes followed by sterile filtration to prepare a HEK-Blue detection medium. The compound was firstly formulated into a 20 mM stock solution, then diluted with pure DMSO to a maximum concentration of 6×10^6 nM, and a total of 10 points were obtained by a 3-fold gradient dilution.
The above formulated compound was firstly diluted 20-fold with the medium, then 20 μl of the diluted compound were added to each well. The supernate was removed from the HEK-Blue™ hTLR7 cells, to which 2-5 ml of pre-warmed PBS were then added. The cells were placed in an incubator for 1-2 minutes, gently pipetted, and counted by trypan blue staining. The cells were re-suspended in the HEK-Blue detection medium to adjust the concentration to 2.2×10^5 cells/ml. 180 μl of cells were added to the above 96-well plate already added with 20 μl of the compounds, and incubated at 37° C. for 6-16 hours.
The activation effect of the compounds of the present invention on human TLR7 can be determined by the above test, and the obtained EC50 values are shown in Table 1.

CYP2D6, sequence (P10635 whole entry): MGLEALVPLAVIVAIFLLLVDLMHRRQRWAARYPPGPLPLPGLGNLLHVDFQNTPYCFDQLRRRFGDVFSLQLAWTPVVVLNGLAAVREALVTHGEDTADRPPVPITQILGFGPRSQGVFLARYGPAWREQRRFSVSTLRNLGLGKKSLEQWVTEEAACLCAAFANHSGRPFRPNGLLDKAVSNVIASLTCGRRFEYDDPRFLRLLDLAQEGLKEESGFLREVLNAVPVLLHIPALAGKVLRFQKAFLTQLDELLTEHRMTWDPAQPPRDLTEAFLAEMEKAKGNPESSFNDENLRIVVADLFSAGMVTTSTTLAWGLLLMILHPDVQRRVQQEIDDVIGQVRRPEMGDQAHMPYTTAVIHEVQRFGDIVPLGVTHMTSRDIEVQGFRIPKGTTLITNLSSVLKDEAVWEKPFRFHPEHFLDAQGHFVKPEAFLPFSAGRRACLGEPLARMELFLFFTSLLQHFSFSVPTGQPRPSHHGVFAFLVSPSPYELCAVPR
human TLR7, sequence (Q9NYK1 27-1049): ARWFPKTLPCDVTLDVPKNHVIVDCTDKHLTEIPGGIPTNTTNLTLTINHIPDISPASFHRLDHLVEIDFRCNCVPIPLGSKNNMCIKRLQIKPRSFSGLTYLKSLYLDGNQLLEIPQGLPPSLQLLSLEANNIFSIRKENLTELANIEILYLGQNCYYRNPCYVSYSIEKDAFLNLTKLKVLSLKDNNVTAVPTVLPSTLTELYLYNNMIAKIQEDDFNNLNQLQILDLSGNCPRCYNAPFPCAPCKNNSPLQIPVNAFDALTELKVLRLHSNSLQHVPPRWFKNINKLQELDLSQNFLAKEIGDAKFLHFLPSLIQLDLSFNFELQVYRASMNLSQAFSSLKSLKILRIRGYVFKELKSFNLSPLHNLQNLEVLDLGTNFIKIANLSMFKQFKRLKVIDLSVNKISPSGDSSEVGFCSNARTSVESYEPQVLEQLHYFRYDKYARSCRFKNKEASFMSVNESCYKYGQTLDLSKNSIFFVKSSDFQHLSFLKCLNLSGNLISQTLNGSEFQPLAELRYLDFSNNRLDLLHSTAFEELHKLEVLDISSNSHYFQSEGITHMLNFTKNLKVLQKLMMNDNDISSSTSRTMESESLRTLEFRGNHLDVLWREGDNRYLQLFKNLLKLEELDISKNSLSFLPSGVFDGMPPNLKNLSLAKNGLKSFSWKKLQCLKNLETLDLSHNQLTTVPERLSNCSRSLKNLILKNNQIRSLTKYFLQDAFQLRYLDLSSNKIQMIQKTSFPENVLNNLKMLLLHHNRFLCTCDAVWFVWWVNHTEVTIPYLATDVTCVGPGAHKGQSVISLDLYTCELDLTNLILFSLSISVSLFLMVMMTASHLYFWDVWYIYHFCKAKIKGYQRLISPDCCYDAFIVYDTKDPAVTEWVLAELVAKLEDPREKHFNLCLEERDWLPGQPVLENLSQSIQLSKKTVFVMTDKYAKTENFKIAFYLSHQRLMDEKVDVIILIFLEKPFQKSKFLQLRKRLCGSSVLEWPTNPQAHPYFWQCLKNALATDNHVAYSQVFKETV
CYP3A4, sequence (P08684 whole entry): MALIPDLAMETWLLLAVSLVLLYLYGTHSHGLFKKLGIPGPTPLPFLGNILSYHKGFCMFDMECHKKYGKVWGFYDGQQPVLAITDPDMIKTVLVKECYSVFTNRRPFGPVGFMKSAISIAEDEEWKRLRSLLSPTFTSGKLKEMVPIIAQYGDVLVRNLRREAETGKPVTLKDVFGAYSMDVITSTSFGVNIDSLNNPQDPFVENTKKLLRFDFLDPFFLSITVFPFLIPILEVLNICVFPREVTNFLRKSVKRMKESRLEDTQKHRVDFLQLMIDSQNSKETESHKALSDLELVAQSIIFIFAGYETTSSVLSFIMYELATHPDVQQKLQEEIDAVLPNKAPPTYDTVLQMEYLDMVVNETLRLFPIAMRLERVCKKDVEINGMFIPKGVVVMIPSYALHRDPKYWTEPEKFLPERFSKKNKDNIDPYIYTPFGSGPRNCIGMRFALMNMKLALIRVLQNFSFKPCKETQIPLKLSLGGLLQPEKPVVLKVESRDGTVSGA

Regarding `CCCCOc1nc(N)c2cnn(Cc3ccc(CN4CCC4)cc3)c2n1` [Example 2, 1-(4-(Azetidin-1-ylmethyl)benzyl)-6-butoxy-1H-pyrazolo[3,4-d]pyrimidin-4-amine], the IC50 (as a rule, the concentration that inhibits the measured activity by half) in data set [1] was more than 30 µM. In addition, the 50% inhibitory concentration (IC50) in data set [2] worked out at 10 µM. Further, in data set [3], the Emax (usually the greatest response seen or fitted, relative to the assay's reference) worked out at 91% and the EC50 (in general, the concentration giving half of the maximal effect) came to 0.064 µM.
With `CCCCOc1nc(N)c2cnn(Cc3ccc(CN4CCCCC4)cc3)c2n1` [Example 3, 6-Butoxy-1-(4-(piperidin-1-ylmethyl)benzyl)-1H-pyrazolo[3,4-d]pyrimidin-4-amine], 4 µM corresponded to half-maximal inhibition in data set [1] (IC50). The half-maximal inhibitory concentration (IC50) in data set [2] amounted to 7 µM. Moreover, in data set [3], the Emax turned out to be 91% and the response was half-maximal at 0.077 µM (EC50).
Take `CCCCOc1nc(N)c2cnn(Cc3cccc(CN4CCCC4)c3)c2n1` [Example 4, 6-Butoxy-1-(3-(pyrrolidin-1-ylmethyl)benzyl)-1H-pyrazolo[3,4-d]pyrimidin-4-amine]: the half-inhibitory concentration (IC50) in data set [1] turned out to be 16 µM. Moreover, in data set [2], the IC50 was determined as 11 µM. Moreover, in data set [3], the Emax amounted to 88% and the EC50 stood at 0.166 µM.
As for `COCCOc1nc(N)c2cnn(Cc3ccc(CN4CCCC4)cc3)c2n1` [Example 7, 6-(2-Methoxyethoxy)-1-(4-(pyrrolidin-1-ylmethyl)benzyl)-1H-pyrazolo[3,4-d]pyrimidin-4-amine], the IC50 in data set [1] was more than 30 µM. Moreover, the half-inhibitory concentration (IC50) in data set [2] is more than 30 µM. For the same molecule, in data set [3], the maximal response (Emax) is 95% and the EC50 was 0.18 µM.
